The record followed here is patent US20060211755A1, “3-oxo-1, 3-dihydro-indazole-2-carboxylic acid amide derivatives as phospholipase inhibitors” (Eli Lilly and Company Patent Division, priority 2003, published 2006).

SMILES strings stand for the structures.

Assay [1] addresses T1, Recombinant Hepatic Lipase (Homo sapiens, UniProt P11150).
T1 sequence (P11150 23-499): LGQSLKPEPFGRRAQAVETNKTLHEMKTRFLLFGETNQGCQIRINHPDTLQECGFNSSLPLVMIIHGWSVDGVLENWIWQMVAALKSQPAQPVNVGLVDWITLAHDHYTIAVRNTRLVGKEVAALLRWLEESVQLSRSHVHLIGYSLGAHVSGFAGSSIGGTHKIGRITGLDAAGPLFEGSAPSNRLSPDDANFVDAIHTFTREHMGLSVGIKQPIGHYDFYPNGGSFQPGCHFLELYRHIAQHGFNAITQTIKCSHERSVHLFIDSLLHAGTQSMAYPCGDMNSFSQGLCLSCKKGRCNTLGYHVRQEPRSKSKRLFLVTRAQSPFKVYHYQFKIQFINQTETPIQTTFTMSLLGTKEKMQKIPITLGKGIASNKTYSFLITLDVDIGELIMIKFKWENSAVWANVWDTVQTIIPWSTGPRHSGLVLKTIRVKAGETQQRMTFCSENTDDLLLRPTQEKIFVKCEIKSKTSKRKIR
Nature of the assay: Hepatic Lipase Phospholipase Assay. The class given is biochemical. Conditions: ThioPEG substrate, DTNB, 37° C., 10 min preincubation; read-out: Hepatic Lipase Inhibition IC50. The protocol:
Hepatic Lipase Phospholipase Assay
Efficacy was determined by testing various compounds of the invention in a hepatic lipase assay discussed below, and disclosed in U.S. patent application Ser. No. 09/609,871 filed Jul. 3, 2000 incorporated herein by reference in its entirety for U.S. Patent office purposes.
• Substrate Buffer A: 100 mM Hepes, pH 8.3 at 37° C. • Substrate Buffer B: 100 mM Hepes, pH 8.3 at 37° C. with 6.83 mM Triton X100 • ThioPEG: Molecular wt. of 540 • Recombinant Hepatic Lipase • Thiophospholipid: about 0.42 mM thiophospholipid in chloroform • DTNB Solution: about […] DTNB in DMSO (dimethyl sulfoxide) Hepes Buffer A
For Hepes Buffer A, there is 2.4 g Hepes/100 mL water. Therefore 36 grams of Hepes is dissolved in 1500 mL of water. The mix solution's pH is adjusted to pH 8.3 at 37° C. and brought up to 1500 mL with water. 500 mL of Buffer A is retained for the Protein Buffer.
To the remaining 1000 mL of Hepes Buffer A, 4.49 g of Triton X-100 is added and then the combination mixed on a stir plate. It is optimal that stock Buffer A not be too cold or Triton X-100 will take a long time to go into solution
For 0.42 mM substrate stock, use 0.227 mg of thioPEG/mL of Substrate Buffer B. Approximately 20 mg of sn-1 thiol substituted. Phosphatidyl Ethylene Glycol (see Examples for preparation method) is weighed into a vial, such as a scintillation vial. Enough chloroform should be added to make a 2.043 mg/mL solution. Sonicate the solution briefly until well dissolved. Next, pipette 1 mL of chloroform/substrate solution into each scintillation vial. This should give enough substrate for one full 96 well plate. Each vial is dried with nitrogen until solvent removed, swirling each vial simultaneously such that a thin film of substrate will be easily reconstituted in each buffer. Each vial is then frozen.
Daily stock preparation is performed for 9 mL of substrate (one microtiter plate). On the day of the assay, the substrate vial is removed from the freezer and combined with 9 mL of pre-warmed (37° C.) substrate buffer (the final concentration is 0.227 mg/mL). Place the buffer in a 37° C. water bath. Sonicate for 5 minutes or vortex until solution is clear before use.
The enzyme is stored at −80° C. in 100 or 50 μL portions. A 0.406 mg/mL recombinant hepatic lipase stock requires a 50-fold dilution. Therefore, to a 50 μL or 100 μL enzyme aliquot, 2450 μL or 4900 μL, respectively, of substrate Buffer A (protein buffer) should be added. The enzyme should then be stored on ice until ready to use. The protein concentration of enzyme is about 0.406 mg/mL.
To make a 20 mg/mL stock solution, 2-3 mg of DTNB is weighed and then mixed with an appropriate amount of 100% DMSO (dimethyl sulfoxide) to make the desired concentration. This mixture is sonicated for five minutes.
The above solution should be diluted 10 fold with substrate Buffer B (concentration now 2 mg/mL). Then to the thioPEG substrate solution, add 60 μl of dilute DTNB per mL of thioPEG substrate solution. Thus for 9 mL of substrate, 540 microliters of dilute DTNB (final concentration in substrate solution=0.11 mg/mL).
The test compound is dissolved in pure DMSO at […]. As shown below in Table 2, assay concentrations are 10, 1, 0.1, 0.33, 0.011, 0.0037, 0.0012 and 0.00041 μM.
Using a spectrometer, DTNB is used as a thiol coloring reagent with an incubator temperature of 37° C. Substrate Buffer B is placed in a 37° C. water bath to pre-warm. […]

The target in assay [2] is T2, endothelial lipase (EL) (Homo sapiens, UniProt Q9Y5X9).
T2 construct: made in house; host or cells: AV12 cells (conditioned media, non-purified)
T2 sequence (Q9Y5X9 21-500): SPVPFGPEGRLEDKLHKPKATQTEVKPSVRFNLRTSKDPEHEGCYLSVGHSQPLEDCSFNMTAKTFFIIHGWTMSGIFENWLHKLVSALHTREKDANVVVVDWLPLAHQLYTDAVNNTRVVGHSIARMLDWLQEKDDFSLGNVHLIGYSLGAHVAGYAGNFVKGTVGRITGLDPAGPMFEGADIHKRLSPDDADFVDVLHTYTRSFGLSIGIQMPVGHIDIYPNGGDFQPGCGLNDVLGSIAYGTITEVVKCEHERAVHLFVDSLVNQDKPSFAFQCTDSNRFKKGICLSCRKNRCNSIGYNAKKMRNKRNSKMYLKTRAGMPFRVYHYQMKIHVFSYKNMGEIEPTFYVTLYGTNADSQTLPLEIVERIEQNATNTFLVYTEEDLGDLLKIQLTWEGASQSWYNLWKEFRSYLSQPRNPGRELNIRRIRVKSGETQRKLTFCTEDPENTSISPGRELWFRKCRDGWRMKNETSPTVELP
Nature of the assay: Endothelial Lipase Inhibition (Thio PEG substrate, conditioned media). The following applies: EL expressed from AV12 cells, 37° C., average of 3 experiments. It counts as biochemical. How it is done:
Methods for Characterization of Endothelial Lipase Activity
Hepatic lipase (HL) and endothelial lipase (EL) were expressed from AV12 cells. Aliquots from one day's collection of media were stored at −70° C. Activity was measured for both enzymes in conditioned media, (non-purified) where they were tested on the same plate with Thio PEG substrate (0.06 mol fraction, 7.24 mM total lipid), at 37° C. for 30 minutes. […] The OD for EL at 1× was 6.029. Therefore, when HL was used in studies where it was compared to EL, the HL was at 0.25× and EL was used at 1×. All experiments were done in triplicate with enzyme from conditioned media.
Assay conditions of assay were as follows. Both substrates for EL were run at 0.03 mol fraction, 10 mM total lipid. They were dissolved in 100 mM Hepes with 9.95 mM TX100. Both substrates for HL were run at 0.06 mol fraction and 7.25 mM total lipid. They were dissolved in 100 mM Hepes with 6.83 mM Triton X100. The EL enzyme was used at 1× and the HL enzyme was used at 0.25×. The order of addition was as follows: 10 μL of 10% DMSO, 80 μL of substrate and 10 μL of enzyme. The DMSO and substrate were incubated for 10 minutes at 37° C. before the addition of the enzyme. DTNB was added to the substrate prior to addition to the well at 0.096 mg/mL final plate. concentration. The experiments were performed 3 times. Data represents an average of these.
Several compounds were tested with HL and EL to determine their ability to inhibit these enzymes. Conditions of the assay were as mentioned in the previous paragraph except for the order of addition. In these experiments, the order of addition was 10 μL of drug/control, 10 μL of enzyme followed by a 10 minute incubation at 37° C. This was followed by the addition of the 80 μL of Thio PEG substrate containing DTNB. Each experiment was performed 3 times. Data represents an average.

As to `CCCCNC(=O)n1[nH]c2ccccc2c1=O`, the 50% inhibitory concentration (IC50) in assay [1] is 368 ± 15 nM.

Take `CCCCNC(=O)n1c(=O)c2ccccc2n1C`: in assay [1], the IC50 was 19 ± 0.4 nM.

As to `CCCCCNC(=O)n1c(=O)c2ccccc2n1CCC`, the 50% inhibitory concentration (IC50) in assay [1] stood at 59.2 ± 1.1 nM.

Turning to `CCCCCNC(=O)n1c(=O)c2ccccc2n1CCc1ccccc1`, the 50% inhibitory concentration (IC50) in assay [1] was 97.1 ± 1 nM.

As to `CCc1ccccc1CNC(=O)n1[nH]c2ccccc2c1=O`, in assay [2], the IC50 came out at 11.4 ± 5.17 nM.

`O=C(NCc1ccccc1)n1[nH]c2ccccc2c1=O` registered an IC50 in assay [2] of 73.8 ± 26.2 nM.

`O=C(NCc1ccc2c(c1)OCO2)n1[nH]c2ccccc2c1=O` registered a concentration for half-maximal inhibition (IC50) in assay [2] of 45.1 ± 27.5 nM.

As to `O=C(NCc1csc2ccccc12)n1[nH]c2ccccc2c1=O`, the midpoint of inhibition in assay [2], the IC50, lay at 13.2 ± 2.83 nM.

On to `CCCCCNC(=O)n1[nH]c2ccccc2c1=O` [drawing 15], for which the IC50 in assay [1] turned out to be 67.2 ± 3.2 nM.

By IC50 is commonly meant the point on the concentration scale where inhibition reaches its midpoint.
